Values quoted from earlier work in patent US9371350B2, “Trehalose derivatives and pharmaceutical compositions for treating neurodegenerative diseases” (POSTECH ACADEMY-INDUSTRY FOUNDATION, priority 2008, dated 2016).

Legend:
[1] = background, literature report
[2] = system: polyglutamine-induced aggregate formation; settings: in vivo mouse model, literature report

Row | Structure (SMILES) | passage through the BBB to the brain [1] | inhibition of polyglutamine-induced aggregate formation [2]
1 | O[C@H]1[C@H](O)[C@@H](O)[C@H](O)[C@@H](O)[C@H]1O [inositol] | difficulty in passing through the blood-brain barrier | –
2 | OC[C@H]1O[C@H](O[C@H]2O[C@H](CO)[C@@H](O)[C@H](O)[C@H]2O)[C@H](O)[C@@H](O)[C@@H]1O [trehalose] | cannot pass through the BBB | efficiently inhibit
